Reference: PMC8829872 (Cancer chemotherapy and pharmacology, 2022)
Like-named read-outs stand apart in the source and are kept apart here.

What was measured:
[1] = cited from earlier work; for dose proportionality in exposure: single agent
[2] = mouse, in vivo
Method: The vehicle for all groups was 10% DMSO, 40% propylene glycol, and 50% dH2O. […] Mice were euthanized by CO2 inhalation and the following tissues collected: blood, liver, kidney, lung, skeletal muscle, and brain.
Duplicate standard curves with calibrators consisting of 0.3, 1, 3, 10, 30 100, 300, and 1,000 ng/mL, in addition to blank plasma, were prepared fresh on days of analysis using control Balb/c mouse plasma (Innovative Research, Novi, MI). QCs were prepared in bulk and stored at −80 °C, with concentrations of 0.8 (QCL), 20 (QCM), and 800 ng/mL (QCH). […] The injection volume was 3 μL. […] Curve fitting was accomplished through linear regression with 1/y^2 weighting. Semi-quantitation of metabolites was accomplished by reporting IS normalized metabolite response.
Noncompartmental (NC) PK was determined using GraphPad Prism (San Diego, CA) using the linear trapezoidal method and Bailer method of AUC determination for estimates of exposure in plasma, RBC, tumors, and tissues [24]. PK parameters or analysis requiring dose were adjusted for the actual dose as determined using measurements of dosing solution. Dose-normalized plasma exposures, Cmax and AUC, of PO treated groups of the dose linearity studies were compared using ANOVA tests to determine dose linearity.
Tissue partition coefficients (PTissue) and RBC partitioning (PRBC) were calculated using Eq. (1) and tested among PO treated groups using ANOVA tests.
The resulting concentrations were multiplied by the volume or weight to convert to a total amount and then divided by 3 to account for the number of mice per cage. These amounts were then divided by the average total amount of drug administered to calculate the percent excreted by urine and feces, see Eq. (2). Renal clearance (ClR) was calculated by dividing the excreted amount by the plasma AUC, see Eq. (3) [25].
When available, plasma metabolite data was used to determine semi-quantitative exposure as well as metabolic ratios, using Eq. (4). The MR among PO treated groups in the dose linearity studies were compared using ANOVA testing. Metabolite presence was also analyzed in urine and feces.

[3] = Unified compartmental PK model (ADAPT5); design: species or system mice; settings: for bioavailability: Balb/c, mouse, plasma, read-out: Model F (compartmental bioavailability)
Method: A unified compartmental PK model was developed using ADAPT5 [28] to fit the data, […]. Naïve-pooled concentration-time data from each study was used to estimate PK parameters that were shared between each treatment group. Model performance was determined and reported using parameter CV%, R^2, AIC (Akaike information criterion), as well as visually inspected with standardized residual plots. […] The amount of drug ultimately collected in this compartment allowed for calculation of the bioavailability. The developed model was then used to simulate expected plasma concentrations in the extensive PK study. Separately, tumor and plasma time concentration data from the extensive PK study was used to extend this model to add an uncoupled tumor compartment.

[4] = Intestinal contribution to oral bioavailability (hepatic and gut contributions calculated from IV PK); assay type: in vivo, mice; settings: 10 mg/kg IV
Method: The contribution of gut to oral bioavailability was estimated by calculating the contribution of liver processes to bioavailability from IV data and stripping this contribution from the observed bioavailabilities. Assuming IV drug clearance was restricted to hepatic processes, the predicted bioavailability based solely on liver processes, FH, was calculated from IV PK. […] Fe was derived from the amount of drug measured in urine (Ae) and the total amount of drug administered, see Eq. (7). ClBlood was defined by multiplying the observed plasma clearance (Clplasma) by the ratio of plasma exposure (AUCplasma) to total blood exposure (AUCBlood), see Eq. (8). AUCBlood was calculated using hematocrit (HCT) to construct total blood exposure contributions from exposure in RBC (AUCRBC) and plasma, see Eq. (9).

[5] = generally reported, cited from earlier work
[6] = test system: human liver microsomes (HLMs); settings: cited from earlier work
[7] = extensive PK study, model with uncoupled tumor compartment
[8] = non-linear model, dose linearity and bioavailability studies

Structure (SMILES): C[C@@H]1COCCN1c1cc(C2([S@](C)(=N)=O)CC2)nc(-c2cc[nH]c3nccc2-3)n1 [AZD6738]
- dose proportionality ([1]; BID with olaparib and durvalumab, 60 to 240 mg): dose proportionality
- dose limiting toxicity (DLT) ([1]; clinical studies): thrombocytopenia
- concentration at which monocyte and thrombocyte decreases occurred (PK-PD model) ([1]; clinical, increased up to 10 μg/mL): 2500 ng/mL
- dose proportionality in exposure ([1]; 20 to 40 mg BID): greater than proportional increases
- dose proportionality in exposure ([1]; 80 to 240 mg BID): approximate dose proportionality
- Renal excretion of unaltered drug ([2]; Balb/c): < 4 % of dose
- decrease of apparent clearance (Cl/F/kg) ([2]; Balb/c, po): approximately 50%
- decrease of apparent volume of distribution (Vd/F/kg) ([2]; Balb/c, po): approximately 50%
- excreted unchanged in the feces ([2]; Balb/c, po): 9.2-15.7 % of dose
- Cl ([2]; Balb/c, po, 2 mg/kg): 75.7 mL/min/kg
- Vd ([2]; Balb/c, po, 2 mg/kg): 11.4 L/kg
- Cl ([2]; Balb/c, po, 7.5 mg/kg): 58.8 mL/min/kg
- Vd ([2]; Balb/c, po, 7.5 mg/kg): 11.0 L/kg
- Cl ([2]; Balb/c, po, 20 mg/kg): 40.4 mL/min/kg
- Vd ([2]; Balb/c, po, 20 mg/kg): 5.50 L/kg
- Cl ([2]; Balb/c, po, 75 mg/kg): 36.3 mL/min/kg
- Vd ([2]; Balb/c, po, 75 mg/kg): 6.06 L/kg
- Partitioning to lung, PO groups compared to the IV group [2]: approximately two-fold higher
- Penetration into the brain [2]: limited
- bioavailability ([3]; 2 mg/kg PO): 40.4%
- bioavailability ([3]; 7.5 mg/kg PO): 61.5%
- bioavailability ([3]; 20 mg/kg PO): 80.4%
- bioavailability ([3]; 75 mg/kg PO): 90.8%
- Ka (fixed to dose linearity model estimate) [3, 7]: 0.234 min⁻¹
- Kct (model estimate) [3, 7]: 0.325 min⁻¹
- Ktc (model estimate) [3, 7]: 0.0537 min⁻¹
- Vc (model estimate) [3, 7]: 5.04 L/kg
- Ka (model estimate) [3, 8]: 0.234 min⁻¹
- Km (model estimate, pre-systemic saturable efflux/metabolism) [3, 8]: 157 ng
- Kna (model estimate) [3, 8]: 0.0120 min⁻¹
- Vc (model estimate) [3, 8]: 1.91 L/kg
- Vmax (model estimate, pre-systemic saturable efflux/metabolism) [3, 8]: 1238 ng/min
- Vp (model estimate) [3, 8]: 2.61 L/kg
- ClBlood [4]: 0.550 mL/min
- Amount excreted, Ae ([4]; urine): 4.00 µg
- Fraction excreted, Fe ([4]; urine): 0.0191
- clearance ([4]; Balb/c, plasma, average mouse size 18.3 g, read-out: ClPlasma): 0.634 mL/min
- cell based IC50s [5]: below 413 ng/mL
- IC50 ([5]; read-out: cell based IC50s): < 1000 nM
- enzymes of oxidative deimination to the primary sulfoxide metabolite [6]: CYP2C8/2J2
